Data as given in patent US20230141101A1, “PDE4 INHIBITOR COMPOUND AND MEDICAL USE THEREOF” (Suzhou Longbotai Pharmaceuticals Co., Ltd., priority 2020, published 2023).
One block for each compound: values may come before it.

What was measured:
Format in all cases: biochemical
PDE4D2 = PDE4D2 (Homo sapiens, UniProt Q08499); assay: PDE4 inhibitory activity assay (FAM-cAMP enzymatic reaction), PDE4D2; conditions: for IC50: read-out: PDE4 D2 inhibitory activity (IC50 value)
Procedure: (§1) The compounds of the present disclosure were tested for their inhibitory activity (IC50 value) against PDE4A1A, PDE4B1, and PDE4D2.
(§2) Positive compound: Trequinsin (Sigma, Cat No. T20S7).
(§3) Instrument: Wallac Victor Muti-lable counter (Pekin Elmer) Steps of assay:
(§4) PDE enzymatic reaction; • 1) PDE was dissolved in 1× reaction solution to prepare 2× enzyme solution; • 2) FAM-cAMP was dissolved in 1× reaction solution to prepare 2× substrate solution; • 3) Corresponding volume of the compound in DMSO was transferred to the reaction plate through Echo 550; • 4) 2× enzyme solution was added into the corresponding wells of the reaction plate and incubated with the compound solution for 15 minutes at room temperature; • 5) 2× substrate solution was added into the corresponding well of the reaction plate to initiate the reaction; • 6) After the reaction plate was incubated at room temperature for 30 min, the reaction was terminated by adding reaction stopping solution. The reaction plate was incubated at room temperature for another 60 minutes;
(§5) Inhibition rates were calculated with Excel; and IC50 for each compound was calculated with Graphpad prism.

PDE4B1 = biological target: T1, PDE4B1 (Homo sapiens, UniProt Q07343); assay: PDE4 inhibitory activity assay (FAM-cAMP enzymatic reaction), PDE4B1; conditions: 20 nM
T1 construct: purchased BPS 60041
Procedure: as §1, §2, §3, §4, §5

PDE4A1A = biological target: T2, PDE4A1A (Homo sapiens, UniProt P27815); assay: PDE4 inhibitory activity assay (FAM-cAMP enzymatic reaction), PDE4A1A
T2 construct: purchased BPS 60040
Procedure: as §1, §2, §3, §4, §5

[1] = compared with Apremilast and Example 11 of WO2018036470 (WX011)

T2 sequence (P27815 1-647 isoform P27815-4): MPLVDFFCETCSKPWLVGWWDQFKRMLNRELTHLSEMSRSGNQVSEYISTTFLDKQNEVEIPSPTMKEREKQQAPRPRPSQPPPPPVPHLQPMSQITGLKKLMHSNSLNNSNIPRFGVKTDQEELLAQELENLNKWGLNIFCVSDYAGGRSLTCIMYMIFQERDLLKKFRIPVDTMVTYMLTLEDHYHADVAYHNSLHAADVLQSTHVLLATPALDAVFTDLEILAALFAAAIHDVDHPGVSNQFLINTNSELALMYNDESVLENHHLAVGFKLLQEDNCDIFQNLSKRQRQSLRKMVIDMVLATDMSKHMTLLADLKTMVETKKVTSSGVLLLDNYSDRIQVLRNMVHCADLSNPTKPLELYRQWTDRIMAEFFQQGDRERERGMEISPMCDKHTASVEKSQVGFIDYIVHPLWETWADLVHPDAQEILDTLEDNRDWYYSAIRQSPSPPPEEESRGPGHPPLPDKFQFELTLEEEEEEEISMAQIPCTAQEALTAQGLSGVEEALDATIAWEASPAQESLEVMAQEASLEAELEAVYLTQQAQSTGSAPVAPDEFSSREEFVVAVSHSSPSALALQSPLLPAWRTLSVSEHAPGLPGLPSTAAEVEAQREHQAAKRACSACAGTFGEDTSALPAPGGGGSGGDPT
Chain of PDE4D2 (Q08499 303-809): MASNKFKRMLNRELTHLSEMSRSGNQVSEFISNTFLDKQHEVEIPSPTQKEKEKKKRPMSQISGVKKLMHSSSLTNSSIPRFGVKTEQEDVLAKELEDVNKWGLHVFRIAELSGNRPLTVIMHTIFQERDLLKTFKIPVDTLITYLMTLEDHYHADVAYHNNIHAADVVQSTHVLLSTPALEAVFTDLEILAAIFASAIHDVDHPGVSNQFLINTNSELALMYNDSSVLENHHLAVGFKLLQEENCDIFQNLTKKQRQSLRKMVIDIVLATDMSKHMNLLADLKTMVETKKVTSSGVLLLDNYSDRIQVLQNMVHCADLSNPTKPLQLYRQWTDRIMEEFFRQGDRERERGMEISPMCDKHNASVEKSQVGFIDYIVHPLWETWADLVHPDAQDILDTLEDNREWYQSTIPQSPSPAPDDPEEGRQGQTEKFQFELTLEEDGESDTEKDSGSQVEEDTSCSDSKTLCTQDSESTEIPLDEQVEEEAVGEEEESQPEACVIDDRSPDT
T1 sequence (Q07343 whole entry): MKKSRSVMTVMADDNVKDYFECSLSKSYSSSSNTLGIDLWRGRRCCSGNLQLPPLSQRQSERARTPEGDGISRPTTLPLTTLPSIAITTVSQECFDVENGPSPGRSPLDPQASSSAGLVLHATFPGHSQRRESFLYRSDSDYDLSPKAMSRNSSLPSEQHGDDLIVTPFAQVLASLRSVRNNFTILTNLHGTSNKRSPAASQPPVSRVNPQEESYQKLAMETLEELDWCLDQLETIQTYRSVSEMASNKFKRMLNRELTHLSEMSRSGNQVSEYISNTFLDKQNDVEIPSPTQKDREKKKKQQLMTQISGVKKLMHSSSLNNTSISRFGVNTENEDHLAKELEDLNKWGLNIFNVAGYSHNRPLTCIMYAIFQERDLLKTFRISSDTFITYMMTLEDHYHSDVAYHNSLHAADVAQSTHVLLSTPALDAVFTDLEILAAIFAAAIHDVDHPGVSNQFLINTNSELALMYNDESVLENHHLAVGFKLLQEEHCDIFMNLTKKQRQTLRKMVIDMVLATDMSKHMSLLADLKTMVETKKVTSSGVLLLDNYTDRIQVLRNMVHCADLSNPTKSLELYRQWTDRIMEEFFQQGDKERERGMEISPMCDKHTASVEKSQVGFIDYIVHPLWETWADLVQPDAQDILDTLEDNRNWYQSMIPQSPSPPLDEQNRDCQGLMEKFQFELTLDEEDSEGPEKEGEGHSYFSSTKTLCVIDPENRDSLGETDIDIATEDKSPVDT

SMILES: CCOc1nc([C@@H](CS(C)(=O)=O)n2c(=O)n(C)c3cc(-c4ccc(OC)cc4F)ccc32)ccc1OC [Ex. 185, (S)-5-(2-fluoro-4-methoxyphenyl)-1-(1-(6-ethoxy-5-methoxypyridin-2-yl)-2-(methylsulfonyl)ethyl)-3-methyl-1H-benzo[d]imidazol-2(3H)-one]
PDE4 D2 inhibitory effect at 20 nM (PDE4D2): + | PDE4 B1 inhibitory effect at 20 nM (PDE4B1): + | PDE4 A1 inhibitory effect at 20 nM (PDE4A1A): +

SMILES: CCOc1nc([C@@H](CS(C)(=O)=O)n2c(=O)[nH]c3cc(-c4ccccc4F)cnc32)ccc1OC [Ex. 74, (S)-3-(1-(6-ethoxy-5-methoxypyridin-2-yl)-2-(methylsulfonyl)ethyl)-6-(2-fluorophenyl)-1H-imidazo[4,5-b]pyridin-2(3H)-one]
PDE4 D2 inhibitory effect at 20 nM (PDE4D2): + | PDE4 B1 inhibitory effect at 20 nM (PDE4B1): + | PDE4 A1 inhibitory effect at 20 nM (PDE4A1A): +

SMILES: CCOc1nc([C@@H](CS(C)(=O)=O)n2c(=O)n(C)c3cc(-c4cc(OC)ccc4F)ccc32)ccc1OC [Ex. 182, (S)-5-(2-fluoro-5-methoxyphenyl)-1-(1-(6-ethoxy-5-methoxypyridin-2-yl)-2-(methylsulfonyl)ethyl)-3-methyl-1H-benzo[d]imidazol-2(3H)-one]
PDE4 D2 inhibitory effect at 20 nM (PDE4D2): + | PDE4 B1 inhibitory effect at 20 nM (PDE4B1): + | PDE4 A1 inhibitory effect at 20 nM (PDE4A1A): +

SMILES: CCOc1nc([C@H](CS(C)(=O)=O)N2C(=O)c3csc(NC(C)=O)c3C2=O)ccc1OC [Ex. 225, (R)—N-(5-(1-(6-ethoxy-5-methoxypyridin-2-yl)-2-(methylsulfonyl)ethyl)-4,6-dioxo-5,6-dihydro-4H-thieno[3,4-c]pyrrol-1-yl)acetamide]
PDE4 D2 inhibitory effect at 20 nM (PDE4D2): − | PDE4 B1 inhibitory effect at 20 nM (PDE4B1): − | PDE4 A1 inhibitory effect at 20 nM (PDE4A1A): −

SMILES: CCOc1nc([C@@H](CS(C)(=O)=O)n2c(=O)n(C)c3cc(-c4cc(C)ccc4F)cnc32)ccc1OC [Ex. 114, (S)-6-(2-fluoro-5-methylphenyl)-3-(1-(6-ethoxy-5-methoxypyridin-2-yl)-2-(methylsulfonyl)ethyl)-1-methyl-1H-imidazo[4,5-b]pyridin-2(3H)-one]
PDE4 D2 inhibitory effect at 20 nM (PDE4D2): + | PDE4 B1 inhibitory effect at 20 nM (PDE4B1): + | PDE4 A1 inhibitory effect at 20 nM (PDE4A1A): +

SMILES: CCOc1nc([C@@H](CS(C)(=O)=O)n2c(=O)[nH]c3c(C)c(Br)cnc32)ccc1OC [Ex. 73, (S)-3-(1-(6-ethoxy-5-methoxypyridin-2-yl)-2-(methylsulfonyl)ethyl)-6-bromo-7-methyl-1H-imidazo[4,5-b]pyridin-2(3H)-one]
PDE4 D2 inhibitory effect at 20 nM (PDE4D2): + | PDE4 B1 inhibitory effect at 20 nM (PDE4B1): + | PDE4 A1 inhibitory effect at 20 nM (PDE4A1A): +

SMILES: CCOc1nc([C@@H](CS(C)(=O)=O)n2c(=O)n(CC(F)F)c3c(C)c(-c4ccc(F)cc4)cnc32)ccc1OC [Ex. 58, (S)-1-(2,2-difluoroethyl)-3-(1-(6-ethoxy-5-methoxypyridin-2-yl)-2-(methylsulfonyl)ethyl)-6-(4-fluorophenyl)-7-methyl-1H-imidazo[4,5-b]pyridin-2(3H)-one]
PDE4 D2 inhibitory effect at 20 nM (PDE4D2): + | PDE4 B1 inhibitory effect at 20 nM (PDE4B1): + | PDE4 A1 inhibitory effect at 20 nM (PDE4A1A): +

SMILES: CCOc1nc([C@@H](CS(C)(=O)=O)n2c(=O)[nH]c3cc(-c4ccccn4)ccc32)ccc1OC [Ex. 194, (S)-1-(1-(6-ethoxy-5-methoxypyridin-2-yl)-2-(methylsulfonyl)ethyl)-5-(pyridin-2-yl)-1H-benzo[d]imidazol-2(3H)-one]
PDE4 D2 inhibitory effect at 20 nM (PDE4D2): + | PDE4 B1 inhibitory effect at 20 nM (PDE4B1): + | PDE4 A1 inhibitory effect at 20 nM (PDE4A1A): +

SMILES: CCOc1nc([C@@H](CS(C)(=O)=O)n2c(=O)[nH]c3cc(-c4cccc(OC)c4F)ccc32)ccc1OC [Ex. 183, (S)-5-(2-fluoro-3-methoxyphenyl)-1-(1-(6-ethoxy-5-methoxypyridin-2-yl)-2-(methylsulfonyl)ethyl)-1H-benzo[d]imidazol-2(3H)-one]
PDE4 D2 inhibitory effect at 20 nM (PDE4D2): + | PDE4 B1 inhibitory effect at 20 nM (PDE4B1): + | PDE4 A1 inhibitory effect at 20 nM (PDE4A1A): +

SMILES: CCOc1nc([C@@H](CS(C)(=O)=O)n2c(=O)n(CC(F)F)c3c(C)c(-c4ccc(F)cc4)cnc32)ccc1OC(C)C [Ex. 71, (S)-1-(2,2-difluoroethyl)-3-(1-(6-ethoxy-5-isopropoxypyridin-2-yl)-2-(methylsulfonyl)ethyl)-6-(4-fluorophenyl)-7-methyl-1H-imidazo[4,5-b]pyridin-2(3H)-one]
PDE4 D2 inhibitory effect at 20 nM (PDE4D2): + | PDE4 B1 inhibitory effect at 20 nM (PDE4B1): + | PDE4 A1 inhibitory effect at 20 nM (PDE4A1A): +

SMILES: CCOc1nc([C@@H](CS(C)(=O)=O)N2Cc3cccc(NC(=O)C4CC4)c3C2=O)ccc1OC [Ex. 217, (S)—N-(2-(1-(6-ethoxy-5-methoxypyridin-2-yl)-2-(methylsulfonyl)ethyl)-3-oxoisoindolin-4-yl)cyclopropanecarboxamide]
PDE4 D2 inhibitory effect at 20 nM (PDE4D2): + | PDE4 B1 inhibitory effect at 20 nM (PDE4B1): + | PDE4 A1 inhibitory effect at 20 nM (PDE4A1A): +

SMILES: CCOc1nc([C@@H](CS(C)(=O)=O)n2c(=O)n(C)c3cc(-c4ccccc4C)ccc32)ccc1OC [Ex. 140, (S)-1-(1-(6-ethoxy-5-methoxypyridin-2-yl)-2-(methylsulfonyl)ethyl)-5-(o-methylphenyl)-3-methyl-1H-benzo[d]imidazol-2(3H)-one]
PDE4 D2 inhibitory effect at 20 nM (PDE4D2): + | PDE4 B1 inhibitory effect at 20 nM (PDE4B1): + | PDE4 A1 inhibitory effect at 20 nM (PDE4A1A): +

SMILES: CCOc1nc([C@@H](CS(C)(=O)=O)n2c(=O)[nH]c3c(C)c(-c4cc(F)ccc4F)cnc32)ccc1OC [Ex. 27, (S)-6-(2,5-difluorophenyl)-3-(1-(6-ethoxy-5-methoxypyridin-2-yl)-2-(methylsulfonyl)ethyl)-7-methyl-1H-imidazo[4,5-b]pyridin-2(3H)-one]
IC50 (PDE4D2): 3.7 nM

SMILES: CCOc1nc([C@@H](CS(C)(=O)=O)n2c(=O)[nH]c3c(C)c(-c4ccc(C)cc4C)cnc32)ccc1OC [Ex. 31, (S)-6-(2,4-dimethylphenyl)-3-(1-(6-ethoxy-5-methoxypyridin-2-yl)-2-(methylsulfonyl)ethyl)-7-methyl-1H-imidazo[4,5-b]pyridin-2(3H)-one]
IC50 (PDE4D2): 4.1 nM

SMILES: CCOc1nc([C@@H](CS(C)(=O)=O)n2c(=O)n(C)c3cc(-c4ccccc4C)cnc32)ccc1OC [Ex. 80, (S)-3-(1-(6-ethoxy-5-methoxypyridin-2-yl)-2-(methylsulfonyl)ethyl)-1-methyl-6-(o-methylphenyl)-1H-imidazo[4,5-b]pyridin-2(3H)-one]
IC50 (PDE4D2): 6.8 nM

Second part, led by results:

PDE4 D2 inhibitory effect at 20 nM (PDE4D2): + | PDE4 B1 inhibitory effect at 20 nM (PDE4B1): + | PDE4 A1 inhibitory effect at 20 nM (PDE4A1A): +
SMILES: CCOc1nc([C@@H](CS(C)(=O)=O)n2c(=O)[nH]c3c(C)c(-c4c(C)cccc4C)cnc32)ccc1OC [Ex. 34, (S)-6-(2,6-dimethylphenyl)-3-(1-(6-ethoxy-5-methoxypyridin-2-yl)-2-(methylsulfonyl)ethyl)-7-methyl-1H-imidazo[4,5-b]pyridin-2(3H)-one]

IC50 (PDE4D2): 3.4 nM
SMILES: CCOc1nc([C@@H](CS(C)(=O)=O)n2c(=O)[nH]c3c(C)c(-c4ccccc4F)cnc32)ccc1OC [Ex. 2, (S)-3-(1-(6-ethoxy-5-methoxypyridin-2-yl)-2-(methylsulfonyl)ethyl)-6-(2-fluorophenyl)-7-methyl-1H-imidazo[4,5-b]pyridin-2(3H)-one]
inhibitory activity against PDE4D2 compared with Apremilast and WX011 (PDE4D2; [1]): significantly enhanced inhibitory activity | inhibitory activity against PDE4A1A compared with Apremilast and WX011 (PDE4A1A; [1]): significantly enhanced inhibitory activity

IC50 (PDE4D2): 415 nM
SMILES: CCOc1nc([C@H](CS(C)(=O)=O)n2c(=O)[nH]c3c(C)c(-c4ccccc4F)cnc32)ccc1OC [Ex. 3, (R)-3-(1-(6-ethoxy-5-methoxypyridin-2-yl)-2-(methylsulfonyl)ethyl)-6-(2-fluorophenyl)-7-methyl-1H-imidazo[4,5-b]pyridin-2(3H)-one]

IC50 (PDE4D2): 318 nM
SMILES: CCOc1nc([C@H](CS(C)(=O)=O)n2c(=O)[nH]c3c(C)c(-c4ccccc4C)cnc32)ccc1OC [Ex. 9, (R)-3-(1-(6-ethoxy-5-methoxypyridin-2-yl)-2-(methylsulfonyl)ethyl)-7-methyl-6-(o-methylphenyl)-1H-imidazo[4,5b]pyridin-2(3H)-one]

IC50 (PDE4D2): 4.7 nM
SMILES: CCOc1nc([C@@H](CS(C)(=O)=O)n2c(=O)[nH]c3cc(-c4ccccc4C)cnc32)ccc1OC [Ex. 79, (S)-3-(1-(6-ethoxy-5-methoxypyridin-2-yl)-2-(methylsulfonyl)ethyl)-6-(o-methylphenyl)-1H-imidazo[4,5-b]pyridin-2(3H)-one]

IC50 (PDE4D2): 396 nM
SMILES: CCOc1nc([C@H](CS(C)(=O)=O)n2c(=O)[nH]c3c(C)c(-c4ccccc4OC)cnc32)ccc1OC [Ex. 13, (R)-3-(1-(6-ethoxy-5-methoxypyridin-2-yl)-2-(methylsulfonyl)ethyl)-6-(2-methoxyphenyl)-7-methyl-1H-imidazo[4,5-b]pyridin-2(3H)-one]

IC50 (PDE4D2): 8.5 nM
SMILES: CCOc1nc([C@@H](CS(C)(=O)=O)n2c(=O)[nH]c3c(C)c(-c4ccccc4)cnc32)ccc1OC [Ex. 4, (S)-3-(1-(6-ethoxy-5-methoxypyridin-2-yl)-2-(methylsulfonyl)ethyl)-7-methyl-6-phenyl-1H-imidazo[4,5-b]pyridin-2(3H)-one]

IC50 (PDE4D2): 3.4 nM
SMILES: CCOc1nc([C@@H](CS(C)(=O)=O)n2c(=O)[nH]c3c(C)c(-c4ccc(F)cc4C)cnc32)ccc1OC [Ex. 35, (S)-6-(4-fluoro-2-methylphenyl)-3-(1-(6-ethoxy-5-methoxypyridin-2-yl)-2-(methylsulfonyl)ethyl)-7-methyl-1H-imidazo[4,5-b]pyridin-2(3H)-one]
